Laboratory results as given in patent publication US12297207B2, “Maytansinoid derivatives, conjugates thereof, and methods of use” (priority 2015, dated 2025).

Columns and labels:
[1] = test system: T47D ductal carcinoma line (PRLR+); test: In vitro cytotoxicity assay (CellTiter-Glo), T47D cells; format: cell-based, human; conditions: Table 5, payloads only; for IC50: 5 days, read-out: T47D IC50; for T47D % kill: highest concentration tested
Experimental: The present example provides cytotoxicity assays for conjugates provided herein. To evaluate the ability of anti-PRLR antibodies conjugated with 63, 60, 77, and 78 to kill a PRLR expressing cell line, an in vitro cytotoxicity assay using a T47D ductal carcinoma line (ATCC, #HTB-133), which was previously determined to express >27,000 copies of human PRLR at its cell surface, was utilized.
For the assay, T47D cells were seeded onto white 96 well plates at 2,000 cells/well in media containing DMEM supplemented with 10% FBS, NEAA, and pencillin/streptomycinin (complete media). They were grown overnight at 37° C. in 5% CO2. To determine cell viability curves, the following day antibody drug conjugates, unconjugated antibodies, or free payloads were added to the cells at final serial dilutions ranging from 100 nM to 0.01 nM in complete medium and then incubated for an additional 5 days. Luciferase activity was detected after the addition of CellTiter-Glo™ reagent (Promega, G7571) to each well, which contains reagents to lyse the remaining viable cells to release their ATP, ATPase inhibitors to prevent degradation of the ATP, as well as luciferin and luciferase to catalyse the luminescent reaction. Viable cells prior to addition of CellTiter-Glo will be the only source of ATP since the dead cells in culture will not synthesis ATP and any of their released ATP will be destroyed via endogenous ATPases. Relative light units (RLUs) were measured on a Victor luminometer (PerkinElmer) and the results were determined using a four-parameter logistic equation over a 10-point response curve (GraphPad Prism). All measured values and calculated IC50 values were corrected for payload equivalents. All IC50 values are expressed in nM concentration and percent kill is reported for the highest concentration tested.

C4-2 (PSMA+) cells = test: In vitro cytotoxicity assay (CCK8 viability), C4-2 cells; format: cell-based; conditions: Table 5, payloads only; for IC50: read-out: C4-2 IC50
Experimental: In this Example, the ability of various antibody-drug conjugates or their associated payloads to kill antigen-expressing tumor cells in vitro was assessed.
Ovcar3 (Muc16+) or C4-2 (PSMA+) cells were seeded in 96 well plates at 3000 (C42) cells per well in complete growth media and grown overnight. For cell viability curves, serially diluted conjugates or payloads were added to the cells at final concentrations ranging from 300 nM to 5 pM and incubated for 3 days. To measure viability, cells were incubated with CCK8 (Dojindo) for the final 1-3 hours and the absorbance at 450 nm (OD450) was determined on a Victor (Perkin Elmer). Background OD450 levels determined from digitonin ([…]) treated cells were subtracted from all wells and viability is expressed as a percentage of the untreated controls. IC50 values were determined from a four-parameter logistic equation over a 10-point response curve (GraphPad Prism). All conjugate curves and IC50 values are corrected for payload equivalents.

Compound	IC50 [1]	T47D % kill [1]	C4-2 % kill (C4-2 (PSMA+) cells)	IC50 (C4-2 (PSMA+) cells)
COc1cc2cc(c1Cl)N(C)C(=O)C[C@H](OC(=O)[C@H](C)N(C)C(=O)c1cc(F)c(N)cc1F)[C@]1(C)O[C@H]1[C@H](C)[C@@H]1C[C@@](O)(NC(=O)O1)[C@H](OC)/C=C/C=C(\C)C2 [Compound 39, Maytansin-N-methyl-L-alanine-N-(2,5-difluoro-4-amino)benzamide]	20 pM	70%	–	–
COc1cc2cc(c1Cl)N(C)C(=O)C[C@H](OC(=O)[C@H](C)N(C)C(=O)c1ccc(N)c(F)c1)[C@]1(C)O[C@H]1[C@H](C)[C@@H]1C[C@@](O)(NC(=O)O1)[C@H](OC)/C=C/C=C(\C)C2 [Compound 41, Maytansin-N-methyl-L-alanine-(3-fluoro-4-amino)benzamide]	30 pM	72%	–	–
COc1cc2cc(c1Cl)N(C)C(=O)C[C@H](OC(=O)[C@H](C)N(C)C(=O)c1ccc(N)c(Cl)c1)[C@]1(C)O[C@H]1[C@H](C)[C@@H]1C[C@@](O)(NC(=O)O1)[C@H](OC)/C=C/C=C(\C)C2 [Compound 43, Maytansin-N-methyl-L-alanine-(3-chloro-4-amino)benzamide]	10 pM	71%	–	–
COc1cc2cc(c1Cl)N(C)C(=O)CC(OC(=O)C(C)N(C)C(=O)c1ccc(N)c3cccnc13)C1(C)OC1C(C)C1CC(O)(NC(=O)O1)C(OC)C=CC=C(C)C2 [Compound 45, Maytansin-N-methyl-L-alanine-(5-amino-8-carboxyquinoline)carboxamide]	3730 pM	72%	–	–
COc1cc2cc(c1Cl)N(C)C(=O)C[C@H](OC(=O)[C@H](C)N(C)C(=O)c1ccc(N)c(Br)c1)[C@]1(C)O[C@H]1[C@H](C)[C@@H]1C[C@@](O)(NC(=O)O1)[C@H](OC)/C=C/C=C(\C)C2 [Compound 47, Maytansin-N-methyl-L-alanine-(3-bromo-4-amino)benzamide]	10 pM	72%	–	–
COc1cc2cc(c1Cl)N(C)C(=O)C[C@H](OC(=O)[C@H](C)N(C)C(=O)c1ccc(N)c(S(C)(=O)=O)c1)[C@]1(C)O[C@H]1[C@H](C)[C@@H]1C[C@@](O)(NC(=O)O1)[C@H](OC)/C=C/C=C(\C)C2 [Compound 80, Maytansin-N-methyl-L-alanine-N-(3-methylsulfonyl-4-amino)benzamide]	–	–	91%	1300 pM
COc1cc2cc(c1Cl)N(C)C(=O)CC(OC(=O)C(C)N(C)C(=O)c1ccc(N)c(O)c1)C1(C)OC1C(C)C1CC(O)(NC(=O)O1)C(OC)C=CC=C(C)C2 [Compound 82, Maytansin-N-methyl-L-alanine-N-(3-hydroxy-4-amino)benzamide]	–	–	93%	20000 pM
COc1cc2cc(c1Cl)N(C)C(=O)C[C@H](OC(=O)[C@H](C)N(C)C(=O)c1ccccc1N)[C@]1(C)O[C@H]1[C@H](C)[C@@H]1C[C@@](O)(NC(=O)O1)[C@H](OC)/C=C/C=C(\C)C2 [Compound 84, Maytansin-N-methyl-L-alanine-N-(2-amino)benzamide]	–	–	88%	70 pM
COc1ccc(C(=O)N(C)[C@@H](C)C(=O)O[C@H]2CC(=O)N(C)c3cc(cc(OC)c3Cl)C/C(C)=C/C=C/[C@@H](OC)[C@@]3(O)C[C@H](OC(=O)N3)[C@@H](C)[C@@H]3O[C@@]23C)c(N)c1 [Compound 86, Maytansin-N-methyl-L-alanine-N-(4-methoxy-2-amino)benzamide]	–	–	90%	730 pM
COc1cc2cc(c1Cl)N(C)C(=O)C[C@H](OC(=O)[C@H](C)N(C)C(=O)c1ccc(N)c(N3CCOCC3)c1)[C@]1(C)O[C@H]1[C@H](C)[C@@H]1C[C@@](O)(NC(=O)O1)[C@H](OC)/C=C/C=C(\C)C2 [Compound 88, Maytansin-N-methyl-L-alanine-N-(3-morpholino-4-amino)benzamide]	–	–	89%	50 pM
COc1cc2cc(c1Cl)N(C)C(=O)C[C@H](OC(=O)[C@H](C)N(C)C(=O)c1ccc(N)c(NC(C)=O)c1)[C@]1(C)O[C@H]1[C@H](C)[C@@H]1C[C@@](O)(NC(=O)O1)[C@H](OC)/C=C/C=C(\C)C2 [Compound 90, Maytansin-N-methyl-L-alanine-N-(3-acetamido-4-amino)benzamide]	–	–	86%	> 100000 pM
